# Experimental data reported in patent publication US20160030510A1, “METHODS OF TREATING ALZHEIMER'S DISEASE AND OTHER TAUOPATHIES WITH INHIBITORS OF MICROTUBULE AFFINITY REGULATING KINASE” (The Board of Trustees of the Leland Stanford Junior …, priority 2012, published 2016).
# Where a SMILES comes first, the peptide text is derived from it.
# Experiments:
# Human MARK4 = target: T1, Human MARK4 (Homo sapiens, UniProt Q96L34); assay: In vitro kinase assay of MARK4 phosphorylating tau (Western blot); format: biochemical; conditions: human MARK4 and tau affinity-purified from HEK293 cells, FIG. 7
# T1 construct: made in house; host or cells: HEK293 cells
# T1 sequence (Q96L34 1-752): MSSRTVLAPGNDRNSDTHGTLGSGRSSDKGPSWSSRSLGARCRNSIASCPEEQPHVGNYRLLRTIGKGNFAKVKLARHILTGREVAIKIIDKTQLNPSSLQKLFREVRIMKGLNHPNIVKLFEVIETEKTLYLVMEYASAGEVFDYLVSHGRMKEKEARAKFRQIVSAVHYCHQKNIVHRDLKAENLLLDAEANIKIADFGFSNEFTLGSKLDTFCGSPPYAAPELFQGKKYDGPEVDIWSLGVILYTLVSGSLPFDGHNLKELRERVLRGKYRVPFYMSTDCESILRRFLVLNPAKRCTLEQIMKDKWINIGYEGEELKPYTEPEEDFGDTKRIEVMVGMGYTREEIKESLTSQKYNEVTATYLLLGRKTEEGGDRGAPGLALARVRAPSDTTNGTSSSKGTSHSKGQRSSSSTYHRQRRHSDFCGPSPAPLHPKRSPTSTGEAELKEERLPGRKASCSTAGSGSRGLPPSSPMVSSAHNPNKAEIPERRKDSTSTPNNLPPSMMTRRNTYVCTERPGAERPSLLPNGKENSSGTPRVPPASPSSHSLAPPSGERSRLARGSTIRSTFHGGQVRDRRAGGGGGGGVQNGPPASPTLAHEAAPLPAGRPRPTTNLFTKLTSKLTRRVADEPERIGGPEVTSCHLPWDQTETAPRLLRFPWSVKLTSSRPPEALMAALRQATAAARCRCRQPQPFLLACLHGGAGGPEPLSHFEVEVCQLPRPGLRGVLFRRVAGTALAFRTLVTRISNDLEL
# Source text: Both human MARK4 and tau proteins were expressed in HEK293 cells and affinity-purified by immunoprecipitation. After in vitro kinase reaction in the presence or absence of the peptides, the reaction mixtures were separated on SDS-PAGE to separate the proteins, and the levels of total tau and phospho-tau generated by MARK4 were detected by Western blot analysis. The TAT peptide was used as a negative control. Note the inhibition of MARK4-mediated tau phosphorylation by both TAT-MKI and MKI-TAT.
# We next tested the ability of the TAT-MKI and MKI-TAT fusions to inhibit the activity of MARK4 kinase in phosphorylating the tau protein (FIG. 7). Human MARK4 and tau proteins were expressed in HEK293 cells and affinity-purified by immunoprecipitation. In vitro kinase reactions were performed in the presence or absence of the TAT-MKI and MKI-TAT fusion peptides and the levels of total tau and phospho-tau generated by MARK4 were detected by Western blot analysis. The TAT peptide was used as a negative control. Both the TAT-MKI and MKI-TAT fusion peptides inhibited MARK4-mediated tau phosphorylation in vitro.
# [1] = test system: MARK4-mediated tau phosphorylation; assay: Tau phosphorylation in brain of mouse PS19 transgenic tauopathy model (P301S mutant human tau); format: in vivo; conditions: PS19 mice, IP 40 mg/kg/day for 5 days, FIG. 10
# Procedure: Three PS19 transgenic mice (ID number: 9, 10, 11) were subjected to daily IP injection with MKI-TAT peptide (dissolved in 100% DMSO, 40 mg/kg/day) for 5 days. At the end of 5-day injection, the animals were anesthetized with 4% isoflurine and decapitated. The brain tissues were collected immediately, flash-frozen in liquid nitrogen and stored at −80° C. For analysis of effect of MKI-TAT on tau phosphorylation, brain tissues were homogenized in lysis buffer, separated on SDS-PAGE, and probed with the indicated antibodies.
# Three PS19 transgenic mice (ID number: 9, 10, 11) were subjected to daily intraperitoneal injection with MKI-TAT peptide (dissolved in 100% DMSO, 40 mg/kg/day) for 5 days. At the end of the 5-day injection period, the animals were anesthetized with 4% isoflurine and decapitated. The brain tissues were collected immediately, flash-frozen in liquid nitrogen, and stored at −80° C. For analysis of the effects of MKI-TAT on tau phosphorylation, brain tissues were homogenized in lysis buffer, separated on SDS-PAGE, and probed with antibodies against pS262-tau, PHF-1, tau, and actin.
# 5×FAD mouse = assay: Activity Chamber assay in 5×FAD Alzheimer's disease mouse model; format: in vivo; conditions: 5×FAD mice, daily IP for 5 days, FIGS. 11A-11H
# Source text: The 5×FAD mouse, a well-accepted transgenic model of Alzheimer's disease, was used to test the therapeutic efficacy of MKI-TAT in vivo. The 5×FAD model mouse overexpresses APP with the K670N/M671L (Swedish mutation), I716V (Florida mutation), and V717I (London mutation), and PS1 with the M146L and L286V mutations. […] These defects were rescued by the daily delivery of MKI-TAT through IP for 5 days. At the end of the 5 day treatment, the wild type animals treated with vehicle, and 5×FAD mice treated with vehicle or MKI-TAT were subjected to the Activity Chamber assay. Total ambulatory count (FIG. 11A), total stereotypic count (FIG. 11B), total vertical count (FIG. 11C), total session time (FIG. 11D), total ambulatory time (FIG. 11E), total stereotypic time (FIG. 11F), total vertical time (FIG. 11G), and total zone entry (FIG. 11H) were evaluated.
# Activity Chamber assays were performed to evaluate the effects of MKI-TAT in rescuing motor behavioral defects in an Alzheimer's disease mouse model. The 5×FAD mouse, a well-accepted transgenic model of Alzheimer's disease, was used to test the therapeutic efficacy of MKI-TAT in vivo. The 5×FAD model mouse overexpresses APP with the K670N/M671L (Swedish mutation), I716V (Florida mutation), and V717I (London mutation), and PS1 with the M146L and L286V mutations. […]
structure (smiles),measurement,setting,value
CC(=O)NCC(=O)N[C@@H](Cc1ccccc1)C(=O)N1CCC[C@H]1C(=O)N[C@@H](CC(C)C)C(=O)N[C@@H](CCCCN)C(=O)N[C@@H](CCCNC(=N)N)C(=O)N[C@@H](Cc1c[nH]cn1)C(=O)N[C@@H](CC(=O)O)C(=O)NCC(=O)N[C@H](C(=O)N[C@@H](CC(=O)O)C(=O)N[C@@H](CC(=O)O)C(=O)N[C@@H](CC(C)C)C(=O)N[C@@H](CO)C(=O)N[C@@H](CCCCN)C(=O)N[C@H](C(=O)NCC(=O)NCC(=O)N[C@@H](Cc1ccc(O)cc1)C(=O)NCC(=O)N[C@@H](CCCNC(=N)N)C(=O)N[C@@H](CCCCN)C(=O)N[C@@H](CCCCN)C(=O)N[C@@H](CCCNC(=N)N)C(=O)N[C@@H](CCCNC(=N)N)C(=O)N[C@@H](CCC(N)=O)C(=O)N[C@@H](CCCNC(=N)N)C(=O)N[C@@H](CCCNC(=N)N)C(=O)N[C@@H](CCCNC(=N)N)C(N)=O)C(C)C)C(C)C [MKI-TAT] (Ac-GFPLKRHDGVDDLSKVGGYGRKKRRQRRR-NH2),MARK4-mediated tau phosphorylation in vitro,Human MARK4,inhibited
same,Phospho-tau recognized by the PHF-1 antibody in brain,[1],reduced
same,level of MARK4-mediated tau phosphorylation recognized by the pS262-tau antibody in brain,[1],significantly reduced
same,total tau level in brain,[1],largely unchanged
same,"motor behavioral defects (time in zones, average velocity, rearing time, session time, zone entry)",5×FAD mouse,rescued
